Data published in PubChem BioAssay AID2060511 (Molecular Pharmacology Branch, DTP, NCI, 2025).

Tested on: 422866-222-R5-J1-PDC spheroids with HUVEC/MSC, viability
Assay: Anticancer human tumor 422866-222-R5-J1-PDC patient-derived pancreatic adenocarcinoma cell line growth inhibition [GQUAD]
Details: for IC50: curve of first compound; for viability, T/C: stronger effect = lower value; active means viability on the fitted dose curve at most 10% of control; inactive means the rest
Method in brief: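 Multi-cell-type spheroids of tumor cells with HUVEC and mesenchymal stem cells, treated with drug combinations. Concentrations descend in half-log steps from near clinical Cmax, or from 10 microM where Cmax is unknown; viability read-out.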

[1] = second compound 0.0316 µM, first compound 0.0316 µM
[2] = second compound 0.0316 µM, first compound 0.1 µM
[3] = second compound 0.0316 µM, first compound 0.316 µM
[4] = second compound 0.0316 µM, first compound 1 µM
[5] = second compound 0.0316 µM, first compound 3.16 µM
[6] = second compound 0.0316 µM, first compound 10 µM
[7] = second compound 0.1 µM, first compound 0.0316 µM
[8] = second compound 0.1 µM, first compound 0.1 µM
[9] = second compound 0.1 µM, first compound 0.316 µM
[10] = second compound 0.1 µM, first compound 1 µM
[11] = second compound 0.1 µM, first compound 3.16 µM
[12] = second compound 0.1 µM, first compound 10 µM
[13] = second compound 0.316 µM, first compound 0.0316 µM
[14] = second compound 0.316 µM, first compound 0.1 µM
[15] = second compound 0.316 µM, first compound 0.316 µM
[16] = second compound 0.316 µM, first compound 1 µM
[17] = second compound 0.316 µM, first compound 3.16 µM
[18] = second compound 0.316 µM, first compound 10 µM
[19] = second compound 1 µM, first compound 0.0316 µM
[20] = second compound 1 µM, first compound 0.1 µM
[21] = second compound 1 µM, first compound 0.316 µM
[22] = second compound 1 µM, first compound 1 µM
[23] = second compound 1 µM, first compound 3.16 µM
[24] = second compound 1 µM, first compound 10 µM
[25] = second compound 3.16 µM, first compound 0.0316 µM
[26] = second compound 3.16 µM, first compound 0.1 µM
[27] = second compound 3.16 µM, first compound 0.316 µM
[28] = second compound 3.16 µM, first compound 1 µM
[29] = second compound 3.16 µM, first compound 3.16 µM
[30] = second compound 3.16 µM, first compound 10 µM
[31] = second compound 10 µM, first compound 0.0316 µM
[32] = second compound 10 µM, first compound 0.1 µM
[33] = second compound 10 µM, first compound 0.316 µM
[34] = second compound 10 µM, first compound 1 µM
[35] = second compound 10 µM, first compound 3.16 µM
[36] = second compound 10 µM, first compound 10 µM
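Further: spheroids exposed to compounds for seven days before reading.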
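Wherever viability, T/C is given: percent viability relative to DMSO vehicle control taken as 100%.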

CC(=O)O[C@H]1C(=O)[C@@]2(C)[C@H]([C@H](OC(=O)c3ccccc3)[C@]3(O)C[C@H](OC(=O)[C@H](O)[C@@H](NC(=O)c4ccccc4)c4ccccc4)C(C)=C1C3(C)C)[C@]1(OC(C)=O)CO[C@@H]1C[C@@H]2O + Cc1cnc(CNC(=O)c2c(=O)c3ccc(N4CCCN(C)CC4)nc3n3c2sc2ccccc23)cn1
inactive: viability, T/C [1] 81% | viability, T/C [2] 67.2% | viability, T/C [3] 80.3% | viability, T/C [4] 71.9% | viability, T/C [5] 73.8% | viability, T/C [6] 91.6% | viability, T/C [7] 88% | viability, T/C [8] 86.3% | viability, T/C [9] 77.1% | viability, T/C [10] 86.2% | viability, T/C [11] 95.5% | viability, T/C [12] 97.4% | viability, T/C [13] 89.5% | viability, T/C [14] 82.8% | viability, T/C [15] 85.3% | viability, T/C [16] 107% | viability, T/C [17] 115% | viability, T/C [18] 117% | viability, T/C [19] 79.2% | viability, T/C [20] 74.6% | viability, T/C [21] 86.5% | viability, T/C [22] 94.5% | viability, T/C [23] 117% | viability, T/C [24] 119% | viability, T/C [25] 83.3% | viability, T/C [26] 94.5% | viability, T/C [27] 94.1% | viability, T/C [28] 91.7% | viability, T/C [29] 118% | viability, T/C [30] 107% | viability, T/C [31] 80.1% | viability, T/C [32] 78.8% | viability, T/C [33] 71.6% | viability, T/C [34] 101% | viability, T/C [35] 104% | viability, T/C [36] 123%
> 10 µM: IC50 (second compound 0.0316 µM) | IC50 (second compound 0.1 µM) | IC50 (second compound 0.316 µM) | IC50 (second compound 1 µM) | IC50 (second compound 3.16 µM) | IC50 (second compound 10 µM)

CC[C@@]1(O)C(=O)OCc2c1cc1n(c2=O)Cc2cc3c(CN(C)C)c(O)ccc3nc2-1 + Cc1cnc(CNC(=O)c2c(=O)c3ccc(N4CCCN(C)CC4)nc3n3c2sc2ccccc23)cn1
0.191 µM: IC50 (second compound 0.0316 µM)
> 0.316 µM: IC50 (second compound 0.1 µM) | IC50 (second compound 0.316 µM) | IC50 (second compound 1 µM) | IC50 (second compound 3.16 µM) | IC50 (second compound 10 µM)
inactive: viability, T/C (second compound 0.0316 µM, first compound 0.000999 µM) 97.1% | viability, T/C (second compound 0.0316 µM, first compound 0.00316 µM) 92.6% | viability, T/C (second compound 0.0316 µM, first compound 0.00999 µM) 94% | viability, T/C [1] 77.1% | viability, T/C (second compound 0.0316 µM, first compound 0.0999 µM) 51.4% | viability, T/C [3] 48.9% | viability, T/C (second compound 0.1 µM, first compound 0.000999 µM) 95.8% | viability, T/C (second compound 0.1 µM, first compound 0.00316 µM) 86.8% | viability, T/C (second compound 0.1 µM, first compound 0.00999 µM) 82.8% | viability, T/C [7] 70.8% | viability, T/C (second compound 0.1 µM, first compound 0.0999 µM) 69.6% | viability, T/C [9] 56.2% | viability, T/C (second compound 0.316 µM, first compound 0.000999 µM) 89.2% | viability, T/C (second compound 0.316 µM, first compound 0.00316 µM) 85% | viability, T/C (second compound 0.316 µM, first compound 0.00999 µM) 87.3% | viability, T/C [13] 80.6% | viability, T/C (second compound 0.316 µM, first compound 0.0999 µM) 80.9% | viability, T/C [15] 58.6% | viability, T/C (second compound 1 µM, first compound 0.000999 µM) 78.6% | viability, T/C (second compound 1 µM, first compound 0.00316 µM) 81.4% | viability, T/C (second compound 1 µM, first compound 0.00999 µM) 76.5% | viability, T/C [19] 81.4% | viability, T/C (second compound 1 µM, first compound 0.0999 µM) 83.6% | viability, T/C [21] 74.9% | viability, T/C (second compound 3.16 µM, first compound 0.000999 µM) 79.7% | viability, T/C (second compound 3.16 µM, first compound 0.00316 µM) 80.8% | viability, T/C (second compound 3.16 µM, first compound 0.00999 µM) 83.8% | viability, T/C [25] 81.5% | viability, T/C (second compound 3.16 µM, first compound 0.0999 µM) 90.9% | viability, T/C [27] 74.6% | viability, T/C (second compound 10 µM, first compound 0.000999 µM) 82.6% | viability, T/C (second compound 10 µM, first compound 0.00316 µM) 88.7% | viability, T/C (second compound 10 µM, first compound 0.00999 µM) 81.1% | viability, T/C [31] 83.2% | viability, T/C (second compound 10 µM, first compound 0.0999 µM) 88.4% | viability, T/C [33] 60.6%

COc1cc(C2c3cc4c(cc3C(OC3OC5COC(C)OC5C(O)C3O)C3COC(=O)C23)OCO4)cc(OC)c1O (stereo unspecified) + Cc1cnc(CNC(=O)c2c(=O)c3ccc(N4CCCN(C)CC4)nc3n3c2sc2ccccc23)cn1
3.77 µM: IC50 (second compound 0.0316 µM)
inactive: viability, T/C [1] 98.4% | viability, T/C [2] 78.3% | viability, T/C [3] 83.7% | viability, T/C [4] 59.4% | viability, T/C [5] 53.5% | viability, T/C [6] 39.1% | viability, T/C [7] 92.8% | viability, T/C [8] 79.2% | viability, T/C [9] 77.6% | viability, T/C [10] 66.8% | viability, T/C [11] 59.2% | viability, T/C [12] 49.7% | viability, T/C [13] 81.6% | viability, T/C [14] 94.8% | viability, T/C [15] 84% | viability, T/C [16] 80.9% | viability, T/C [17] 71.8% | viability, T/C [18] 58.9% | viability, T/C [19] 81.9% | viability, T/C [20] 92% | viability, T/C [21] 91.4% | viability, T/C [22] 91.4% | viability, T/C [23] 81.1% | viability, T/C [24] 56% | viability, T/C [25] 84.6% | viability, T/C [26] 87.3% | viability, T/C [27] 82.4% | viability, T/C [28] 85.5% | viability, T/C [29] 81.6% | viability, T/C [30] 60% | viability, T/C [31] 86.2% | viability, T/C [32] 80.4% | viability, T/C [33] 85.5% | viability, T/C [34] 93.2% | viability, T/C [35] 85.1% | viability, T/C [36] 52.1%
> 10 µM: IC50 (second compound 0.1 µM) | IC50 (second compound 0.316 µM) | IC50 (second compound 1 µM) | IC50 (second compound 3.16 µM) | IC50 (second compound 10 µM)
